Measurements as given in article PMC7463714, “Design and Synthesis of Novel Hybrid 8-Hydroxy Quinoline-Indole Derivatives as Inhibitors of Aβ Self-Aggregation and Metal Chelation-Induced Aβ Aggregation” (Molecules, 2020).
“Also recorded” adds a separate entry of the source.

Legend:
[1] = molecular target: T1, Zn^2+-induced Aβ1–42 aggregation (Homo sapiens, UniProt P05067); test: Zn2+-induced Aβ1–42 aggregation, ThT fluorescence assay; assay type: biochemical; details: compound 50 µM; Aβ1–42 25 µM; Zn^2+ 25 µM; 24 h, 37 °C
T1 construct: Aβ1–42 (Adooq Bioscience, CA, USA); purchased Adooq Bioscience
Protocol: (§1) Initially, CuSO4 or ZnCl2 was added to Aβ1–42 peptides at room temperature and the mixture incubated with or without drugs for 24 h at 37 °C. The fluorescence intensity of Aβ1–42 peptide alone was designated as 100%.
(§2) Mixtures of the peptide (10 µL, 25 µM final concentration) with or without Cu^2+ or Zn^2+ (10 µL, 25 μM final concentration) and the test compound (10 µL, 50 μM final concentration) were incubated at 37 °C for 24 h. Then 50 mM glycine-NaOH buffer (pH 8.0) containing ThT (5 µM) was added to 20 µL of the sample and diluted to afford a final volume of 200 µL. Fluorescence intensities of the solutions were recorded (excitation, 450 nm; emission, 485 nm). The percentage of […] was calculated by the expression (1 − IFi/IFc) × 100, in which IFi and IFc are the fluorescence intensities obtained for Aβ in the presence and absence of inhibitors, respectively.

[2] = molecular target: T2, Cu^2+-induced Aβ1–42 aggregation (Homo sapiens, UniProt P05067); test: Cu2+-induced Aβ1–42 aggregation, ThT fluorescence assay; assay type: biochemical; details: compound 50 µM; Aβ1–42 25 µM; Cu^2+ 25 µM; 24 h, 37 °C
T2 construct: Aβ1–42 (Adooq Bioscience, CA, USA); purchased Adooq Bioscience
Protocol: as §1, §2

Aβ1–42 = molecular target: T3, Aβ1–42 (Homo sapiens, UniProt P05067); test: Self-induced Aβ1–42 aggregation, thioflavin T (ThT) fluorescence assay; assay type: biochemical; details: 25 µM Aβ1–42; compound 0.3-27 µM; 37 °C, 48 h; ThT fluorescence; read-out: EC50 against self-induced Aβ1–42 aggregation
T3 construct: Aβ1–42 (Adooq Bioscience, CA, USA); purchased Adooq Bioscience
Protocol: The novel hybrid 8-hydroxyquinoline-indole derivatives, 7a–7e, 12a, 12b, and the (8-hydroxyquinolin-2-yl)methyl-4-(1H-indole-2-carbonyl)piperazine-1-carboxylate analogs 18a–18h were evaluated for inhibitory activity against self-induced Aβ1–42 aggregation at five different concentrations (0.3, 1.0, 3, 9 and 27 µM) with 25 µM Aβ1–42, utilizing a thioflavin T (ThT) fluorescence assay with clioquinol, 1 as a positive control (Figure 3). In the absence of inhibitor, the self-induced Aβ1–42 aggregation ThT fluorescence was recorded as 115 arbitrary units (a.u.). The self-induced Aβ1–42 aggregation results for all the above synthetic analogs from the ThT fluorescence assay are shown in Table 1. […] The thioflavin T (ThT)-fluorescence assay was used to measure the inhibition of Aβ aggregation. Aβ1–42 (Adooq Bioscience, CA, USA) was pretreated with 1 mL of hexafluoroisopropanol (HFIP) to afford a stock solution, which was aliquoted into small samples. The solvent was evaporated at room temperature, and samples were stored at −80 °C. For Aβ1–42 aggregation inhibition experiments, phosphate buffer (pH 7.4) was added to the Aβ stock solution to afford a 50 µM concentration before use. A mixture of the Aβ1–42 peptide (10 µL, 25 µM final concentration) with or without the test compound (10 µL; 0.3, 1.0, 3, 9, and 27 µM) was incubated at 37 °C for 48 h. Blanks using phosphate buffer (pH 7.4) instead of Aβ, with or without test compound, were also assessed. Then 50 mM glycine-NaOH buffer (pH 8.0) containing ThT (5 µM) was added to 20 µL of the sample to afford a final volume of 200 µL. The fluorescence intensities were recorded (excitation, 450 nm; emission, 485 nm). The fluorescence intensities were background corrected to the no enzyme control and 100% of intensity reflected no inhibition of aggregation. To obtain the normalized amyloid aggregation inhibition relative to the control group, the amyloid aggregation/cell values were further divided by the total amyloid fluorescence of the control group. Using GraphPad Prism, the amyloid aggregation values (relative to control group) were entered along the corresponding concentrations for the triplicates and then a log transformation was obtained. Using the dose–response simulation module in GraphPad Prism, nonlinear regression fit (curve) was then generated for each small molecule with various concentrations used. Curves were then compared to determine if they were statistically different, by performing the best-fit values of selected unshared parameters between data sets and extra sum-of-squares F test, allowing for selection of the simpler model unless the P value was less than 0.05. The logEC50 output parameter was then selected to obtain the EC50 for each of the dose–response curves for the small molecules.

SY5Y-APPSw cells = test: Protein aggregation in SY5Y-APPSw cells (ThT staining); assay type: cell-based; details: 1 µM, 48 h, 37 °C; compared to clioquinol (1)
Protocol: In another study compounds 7a–7d, 18c–18f, and 18h were also evaluated for their ability to reduce protein aggregation in SY5Y-APPSw cells. SY5Y-APPSw cells were exposed to the above protein aggregation inhibitors and parent compound 1 at 1 µM for 48 h at 37 °C. Cells were assessed for amyloid deposits by staining with 0.1% w/v ThT, counterstaining nuclei with DAPI, and mean ThT fluorescence signal per nucleus calculated over multiple fields. All the analogs reduced fluorescence intensity (indicative of protein aggregation) by 22–67% (P < 0.001 by 2-tailed t-test). […] Thioflavin-T fluorescence assays for in vitro amyloid aggregation and cell culture models of amyloid aggregation overlap but are not identical. This is due to the fact that thioflavin in cell-culture stains not just amyloid aggregates but also other amyloid-like fibrillar structures. Another important difference is that in vitro aggregation is assessed after 24 h, whereas aggregation in cell culture is assessed after 48 h.
(§3) Human Embryonic Kidney cells that overexpress tau protein (HEK-tau) cells or SY5Y neuroblastoma cells that express a familial-AD mutant of amyloid precursor protein (SY5Y-APPSw cells) were each seeded in 96-well plates at 8000 cells per well. After 24 h, cells were supplemented with test compound at 1 µM after diluting with medium. Vehicle only control was also included for each experiment. The cells were cultured for an additional 48 h at 37 °C. Both the cell lines were able to reach approximately 80% confluency in 48 h. Cells were assessed for amyloid deposits by staining with 0.1% w/v ThT, counterstaining nuclei with DAPI, and calculating mean ThT fluorescence signal per nucleus over multiple fields.

HEK-tau cells = test: Protein aggregation in HEK-tau cells (ThT staining); assay type: cell-based, Human; details: 1 µM, 48 h, 37 °C; compared to clioquinol (1)
Protocol: In our study, we have shown that restoring metal homeostasis by treatment with hybrid 8-hydroxyquinoline-indole analogs reduces tau- and amyloid-mediated protein aggregation, and their associated neurotoxicity. Analogs 7a–7d, 18c–18f, and 18h were evaluated for their ability to reduce protein aggregation in HEK-tau cells. HEK-tau cells were exposed to the above Aβ1–42 aggregation inhibitors and parent drug clioquinol (1) at 1 µM for 48 h at 37 °C. Cells were assessed for amyloid deposits by staining with 0.1% w/v thioflavin T, counterstaining nuclei with DAPI, and mean ThT fluorescence signal per nucleus was calculated over multiple fields. All the analogs reduced fluorescence intensity (indicative of protein aggregation) by 26–62% (P < 0.001 by 2-tailed t-test).
as §3

T2 sequence (P05067 672-713 limits assumed): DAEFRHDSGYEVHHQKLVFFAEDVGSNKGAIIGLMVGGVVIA
T1 sequence (P05067 672-713 limits assumed): as above
T3 sequence (P05067 672-713 limits assumed): as above

EC50 (Aβ1–42) | Compound | further results
9.95 µM | Oc1c(I)cc(Cl)c2cccnc12 [Compound 1, Clioquinol, reference compound] | decrease of ThT fluorescence / inhibition of Zn^2+-induced Aβ1–42 aggregation [1]: 57.2%; decrease of ThT fluorescence / inhibition of Cu^2+-induced Aβ1–42 aggregation [2]: 62.5%
> 20 µM | O=C(O)c1cc2ccccc2[nH]1 [Compound 5a, 1H-indole-2-carboxylic acid, reference compound] | –
4.26 µM | O=C(OCc1ccc2cccc(O)c2n1)c1cc2ccccc2[nH]1 [Compound 7a, (8-Hydroxyquinolin-2-yl)methyl-1H-indole-2-carboxylate] | protein aggregation inhibition in SY5Y-APPSw cells, result in words (SY5Y-APPSw cells): most effective
9.28 µM | O=C(OCc1ccc2c(Cl)cc(Cl)c(O)c2n1)c1cc2ccccc2[nH]1 [Compound 7b, (5,7-Dichloro-8-hydroxyquinolin-2-yl)methyl-1H-indole-2-carboxylate] | –
3.22 µM | COc1ccc2[nH]c(C(=O)OCc3ccc4cccc(O)c4n3)cc2c1 [Compound 7c, (8-Hydroxyquinolin-2-yl)methyl-5-methoxy-1H-indole-2-carboxylate] | –
6.34 µM | O=C(OCc1ccc2cccc(O)c2n1)c1cc2cc(F)ccc2[nH]1 [Compound 7d, (8-Hydroxyquinolin-2-yl)methyl-5-fluoro-1H-indole-2-carboxylate] | –
9.52 µM | O=C(OCc1ccc2c(Cl)cc(Cl)c(O)c2n1)c1cc2cc(F)ccc2[nH]1 [Compound 7e, (5,7-Dichloro-8-hydroxyquinolin-2-yl)methyl-5-fluoro-1H-indole-2-carboxylate] | –
> 10 µM | O=C(NCc1ccc2c(Cl)cc(Cl)c(O)c2n1)c1cc2ccccc2[nH]1 [Compound 12a, N-((5,7-Dichloro-8-hydroxyquinolin-2-yl)methyl)-1H-indole-2-carboxamide] | –
> 10 µM | COc1ccc2[nH]c(C(=O)NCc3ccc4c(Cl)cc(Cl)c(O)c4n3)cc2c1 [Compound 12b, N-((5,7-Dichloro-8-hydroxyquinolin-2-yl)methyl)-5-methoxy-1H-indole-2-carboxamide] | –
> 10 µM | O=C(OCc1ccc2cccc(O)c2n1)N1CCN(C(=O)c2cc3ccccc3[nH]2)CC1 [Compound 18a, (8-Hydroxyquinolin-2-yl)methyl-4-(1H-indole-2-carbonyl)piperazine-1-carboxylate] | –
> 10 µM | O=C(OCc1ccc2c(Br)cc(Br)c(O)c2n1)N1CCN(C(=O)c2cc3ccccc3[nH]2)CC1 [Compound 18b, (5,7-Dibromo-8-hydroxyquinolin-2-yl)methyl-4-(1H-indole-2-carbonyl)piperazine-1-carboxylate] | –
1.72 µM | O=C(OCc1ccc2c(Cl)cc(Cl)c(O)c2n1)N1CCN(C(=O)c2cc3ccccc3[nH]2)CC1 [Compound 18c, (5,7-Dichloro-8-hydroxyquinolin-2-yl)methyl-4-(1H-indole-2-carbonyl)piperazine-1-carboxylate] | protein aggregation inhibition in SY5Y-APPSw cells, result in words (SY5Y-APPSw cells): effective in reducing protein aggregation; decrease of ThT fluorescence / inhibition of Zn^2+-induced Aβ1–42 aggregation [1]: 70.3%; protein aggregation inhibition in HEK-tau cells, result in words (HEK-tau cells): most effective; also recorded: effective in reducing protein aggregation; decrease of ThT fluorescence / inhibition of Cu^2+-induced Aβ1–42 aggregation [2]: 76.6%
1.48 µM | COc1ccc2[nH]c(C(=O)N3CCN(C(=O)OCc4ccc5cccc(O)c5n4)CC3)cc2c1 [Compound 18d, (8-Hydroxyquinolin-2-yl)methyl-4-(5-methoxy-1H-indole-2-carbonyl)piperazine-1-carboxylate] | protein aggregation inhibition in SY5Y-APPSw cells, result in words (SY5Y-APPSw cells): most effective; also recorded: effective in reducing protein aggregation; decrease of ThT fluorescence / inhibition of Zn^2+-induced Aβ1–42 aggregation [1]: 59.3%; protein aggregation inhibition in HEK-tau cells, result in words (HEK-tau cells): effective in reducing protein aggregation; decrease of ThT fluorescence / inhibition of Cu^2+-induced Aβ1–42 aggregation [2]: 66.1%
2.49 µM | COc1ccc2[nH]c(C(=O)N3CCN(C(=O)OCc4ccc5c(Br)cc(Br)c(O)c5n4)CC3)cc2c1 [Compound 18e, (5,7-Dibromo-8-hydroxyquinolin-2-yl)methyl-4-(5-methoxy-1H-indole-2-carbonyl)piperazine-1-carboxylate] | –
> 10 µM | O=C(OCc1ccc2c(Cl)cc(Cl)c(O)c2n1)N1CCN(C(=O)c2cc3cc(F)ccc3[nH]2)CC1 [Compound 18g, (5,7-Dichloro-8-hydroxyquinolin-2-yl)methyl-4-(5-fluoro-1H-indole-2-carbonyl)piperazine-1-carboxylate] | –
2.58 µM | O=C(OCc1ccc2cccc(O)c2n1)N1CCN(C(=O)c2cc3cc(F)ccc3[nH]2)CC1 [Compound 18h] | –
